Test [1] can be described thus: P. falciparum Dd2 growth inhibitors, dose response, SYBR Green, dry powder samples, set 9 (AID 1159568). The test is classed as functional, cell-based.
For test [2], the target named is Voltage-gated inwardly rectifying potassium channel KCNH2 (Homo sapiens, UniProt Q12809). The experiment in a line: hERG protection from proarrhythmic block, potency, dose response, cell-based, thallium flux (AID 2121). The test is classed as ADME.
Test [3] addresses Acyl-homoserine lactone acylase PvdQ (Pseudomonas aeruginosa (strain LESB58), UniProt Q9I194). The experiment in a line: P. aeruginosa PvdQ acylase inhibitors, dose response, biochemical, fluorescence, plate reader and imaging, cherry-picks (AID 493231).
The next test addresses Protein Rev (Human immunodeficiency virus type 1 group M subtype B (isolate HXB2)(HIV-1), UniProt P04618). The experiment in a line: inhibitors of Rev binding to RRE RNA, dose response, biochemical, fluorescence polarization, HIV-1 (AID 434976). Details: species or system Human immunodeficiency virus 1. (In general: Polarisation of emitted light reports the rotation of a fluorescent probe.)

Test [4] deals with Female germline-specific tumor suppressor gld-1 (Caenorhabditis elegans, UniProt Q17339). The experiment in a line: inhibitors of GLD-1 binding to TGE RNA, dose response, biochemical, fluorescence polarization, C. elegans (AID 2802).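 Also: fluorescence polarization of labeled TGE RNA bound by purified gld-1 protein.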
Chain of Female germline-specific tumor suppressor gld-1 (Q17339 whole entry): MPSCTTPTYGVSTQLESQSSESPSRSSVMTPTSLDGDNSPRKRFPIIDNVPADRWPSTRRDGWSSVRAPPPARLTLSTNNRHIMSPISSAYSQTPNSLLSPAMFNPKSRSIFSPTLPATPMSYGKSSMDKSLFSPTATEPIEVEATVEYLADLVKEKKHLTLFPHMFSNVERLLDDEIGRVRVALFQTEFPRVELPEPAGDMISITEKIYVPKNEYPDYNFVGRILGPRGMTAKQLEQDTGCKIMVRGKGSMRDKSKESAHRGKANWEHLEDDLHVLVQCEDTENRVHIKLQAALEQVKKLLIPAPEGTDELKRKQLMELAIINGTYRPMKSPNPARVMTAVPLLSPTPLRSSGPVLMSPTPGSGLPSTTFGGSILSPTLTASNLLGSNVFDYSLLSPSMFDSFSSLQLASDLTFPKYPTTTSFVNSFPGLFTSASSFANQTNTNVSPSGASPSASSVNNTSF
Test [5] addresses T1, Polyadenylate-binding protein 1 (Homo sapiens, UniProt P11940). The experiment in a line: PABP1 MLLE–PAM2 binding inhibitor potency, dose response, biochemical, fluorescence polarization, FITC-PAM2 peptide (AID 602259). In kind it is functional. The following applies: read-out: IC50_Mean.
Test [6] deals with T1, Polyadenylate-binding protein 1. The experiment in a line: PABP1 MLLE–PAM2 interaction inhibitors, dose response, miRNA deadenylation inhibitor project, biochemical, fluorescence polarization, Cy5-PAM2 peptide, secondary (AID 602260). In kind it is functional. The following applies: read-out: IC50_Mean.
Test [7] can be described thus: Luminescence-based cell-based high throughput dose response assay to identify activators of the DAF-12 from the parasite S. stercoralis (ssDAF-12). The test is classed as functional.
In test [8] the target is T2, Oxysterols receptor LXR-beta (Homo sapiens, UniProt P55055).
T2 sequence (P55055 whole entry): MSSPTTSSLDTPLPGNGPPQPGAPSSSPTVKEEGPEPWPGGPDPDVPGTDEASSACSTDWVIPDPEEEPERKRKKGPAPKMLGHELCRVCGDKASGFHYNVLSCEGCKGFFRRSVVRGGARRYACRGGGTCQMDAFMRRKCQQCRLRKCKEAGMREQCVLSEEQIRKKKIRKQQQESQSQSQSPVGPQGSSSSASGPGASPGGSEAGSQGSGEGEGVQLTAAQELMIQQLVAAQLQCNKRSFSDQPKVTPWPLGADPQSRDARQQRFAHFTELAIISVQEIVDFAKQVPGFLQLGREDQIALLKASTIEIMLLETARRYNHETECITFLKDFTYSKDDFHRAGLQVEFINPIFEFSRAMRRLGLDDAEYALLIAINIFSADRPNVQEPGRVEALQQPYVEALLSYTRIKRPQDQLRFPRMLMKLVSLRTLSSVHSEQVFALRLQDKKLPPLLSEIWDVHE
The experiment in a line: LXR agonists, Gal4 luciferase reporter, dose response, counter-screen for ssDAF-12 agonist project, cell-based, luminescence, HEK293, S. stercoralis campaign (AID 720737). The following applies: read-out: IC50 (the source's name). In kind it is functional. Background: Reporter assays use an easily measured gene product as a stand-in for the process of interest.

A further test addresses Cytochrome P450 3A4 (Homo sapiens, UniProt P08684). The note with it: Potency.
Test [9] in a line: inhibitors of intracellular T. cruzi replication, confirmation, NIH3T3 host cells, beta-gal luminescence (AID 2044).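 Also: intracellular parasites grown in NIH/3T3 mouse fibroblasts as host cells; luminescent beta-galactosidase reporter signal from transgenic T. cruzi replicating inside host cells; inhibitors lower the luminescence signal.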 The test is classed as functional, cell-based.
The nature of test [10]: cytotoxicity toward NIH3T3 fibroblasts, dose response, counter-screen, cell-based, ATP luminescence, mouse fibroblasts (AID 2010).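 Also: cells exposed to compound for about 90 hours before reading.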 The test is classed as functional. In general terms: A counterscreen serves to expose hits that act by an unwanted route or on another target.
For a further test, the target named is Bcl-2-like protein 10 (Homo sapiens, UniProt Q9HD36). The experiment in a line: displacers of TR3 peptide from Bcl-B, primary screen, selectivity assay for Bfl-1 inhibitor project, biochemical, fluorescence polarization, FITC-TR3 peptide (AID 748).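 Also: fluorescence polarization from a fluorescein-labelled TR3 peptide binding purified Bcl-B.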
Chain of Bcl-2-like protein 10 (Q9HD36 whole entry): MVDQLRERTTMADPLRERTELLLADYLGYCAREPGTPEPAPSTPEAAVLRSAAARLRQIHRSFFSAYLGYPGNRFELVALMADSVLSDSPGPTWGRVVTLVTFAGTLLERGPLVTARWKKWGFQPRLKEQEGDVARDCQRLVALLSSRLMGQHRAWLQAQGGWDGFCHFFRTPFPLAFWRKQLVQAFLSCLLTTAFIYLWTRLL
Test [11] is described as follows: M. tuberculosis H37Rv growth inhibitors, H37Rv strain (AID 1626). The test is classed as functional.
Another test addresses Prothrombin (Homo sapiens, UniProt P00734). The experiment in a line: Thrombin 1536 HTS Dose Response Confirmation. [Related pubchem assays: 1046 (Thrombin 1536 HTS; hits were confirmed in this assay)]. In kind it is functional.
The target in test [12] is Mitogen-activated protein kinase 10 (Homo sapiens, UniProt P53779). The experiment in a line: Dose response biochemical screening assay for inhibitors of c-Jun N-Terminal Kinase 3 (JNK3). [Related pubchem assays: 746 ].
Chain of Mitogen-activated protein kinase 10 (P53779 whole entry): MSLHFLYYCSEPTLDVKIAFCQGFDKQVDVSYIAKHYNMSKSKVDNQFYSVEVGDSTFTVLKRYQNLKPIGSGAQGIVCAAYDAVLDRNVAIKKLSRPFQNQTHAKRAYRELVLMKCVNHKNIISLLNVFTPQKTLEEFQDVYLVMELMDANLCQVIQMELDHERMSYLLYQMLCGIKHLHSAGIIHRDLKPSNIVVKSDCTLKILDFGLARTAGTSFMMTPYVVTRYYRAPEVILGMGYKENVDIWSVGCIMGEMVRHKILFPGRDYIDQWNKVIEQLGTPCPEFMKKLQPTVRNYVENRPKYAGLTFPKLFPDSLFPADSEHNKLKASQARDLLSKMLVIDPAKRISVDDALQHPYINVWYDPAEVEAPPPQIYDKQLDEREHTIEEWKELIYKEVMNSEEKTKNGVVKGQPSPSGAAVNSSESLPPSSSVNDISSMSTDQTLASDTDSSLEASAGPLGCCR

The structures appear in SMILES notation. Calls of active or inactive are those of the source.

By AC50 is commonly meant the concentration giving half of the maximal activity seen.

Chain of Protein Rev (P04618 whole entry): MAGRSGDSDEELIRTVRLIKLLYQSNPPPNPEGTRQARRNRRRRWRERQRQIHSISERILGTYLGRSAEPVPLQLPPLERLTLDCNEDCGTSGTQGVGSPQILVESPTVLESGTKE
Chain of Acyl-homoserine lactone acylase PvdQ (Q9I194 24-193 limits assumed): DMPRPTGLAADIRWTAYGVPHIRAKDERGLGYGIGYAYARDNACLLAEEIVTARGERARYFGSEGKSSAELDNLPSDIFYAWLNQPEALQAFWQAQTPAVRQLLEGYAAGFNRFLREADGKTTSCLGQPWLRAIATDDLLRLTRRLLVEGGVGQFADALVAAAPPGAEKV
Chain of Acyl-homoserine lactone acylase PvdQ (Q9I194 217-762 limits assumed): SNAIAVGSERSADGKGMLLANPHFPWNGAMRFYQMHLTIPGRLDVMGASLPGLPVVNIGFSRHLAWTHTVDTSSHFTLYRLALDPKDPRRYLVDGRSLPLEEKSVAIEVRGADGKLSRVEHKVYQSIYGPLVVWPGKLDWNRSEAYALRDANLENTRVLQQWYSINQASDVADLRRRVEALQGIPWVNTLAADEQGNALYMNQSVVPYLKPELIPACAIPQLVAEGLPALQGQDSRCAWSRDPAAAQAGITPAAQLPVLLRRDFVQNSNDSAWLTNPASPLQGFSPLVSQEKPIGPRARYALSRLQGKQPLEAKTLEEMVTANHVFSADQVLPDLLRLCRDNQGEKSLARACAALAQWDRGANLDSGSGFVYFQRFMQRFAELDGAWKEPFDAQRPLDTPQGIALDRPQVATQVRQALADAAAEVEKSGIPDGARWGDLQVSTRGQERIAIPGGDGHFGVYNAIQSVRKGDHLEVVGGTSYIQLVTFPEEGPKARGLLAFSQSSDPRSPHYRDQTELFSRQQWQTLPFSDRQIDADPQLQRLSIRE
T1 sequence (P11940 whole entry): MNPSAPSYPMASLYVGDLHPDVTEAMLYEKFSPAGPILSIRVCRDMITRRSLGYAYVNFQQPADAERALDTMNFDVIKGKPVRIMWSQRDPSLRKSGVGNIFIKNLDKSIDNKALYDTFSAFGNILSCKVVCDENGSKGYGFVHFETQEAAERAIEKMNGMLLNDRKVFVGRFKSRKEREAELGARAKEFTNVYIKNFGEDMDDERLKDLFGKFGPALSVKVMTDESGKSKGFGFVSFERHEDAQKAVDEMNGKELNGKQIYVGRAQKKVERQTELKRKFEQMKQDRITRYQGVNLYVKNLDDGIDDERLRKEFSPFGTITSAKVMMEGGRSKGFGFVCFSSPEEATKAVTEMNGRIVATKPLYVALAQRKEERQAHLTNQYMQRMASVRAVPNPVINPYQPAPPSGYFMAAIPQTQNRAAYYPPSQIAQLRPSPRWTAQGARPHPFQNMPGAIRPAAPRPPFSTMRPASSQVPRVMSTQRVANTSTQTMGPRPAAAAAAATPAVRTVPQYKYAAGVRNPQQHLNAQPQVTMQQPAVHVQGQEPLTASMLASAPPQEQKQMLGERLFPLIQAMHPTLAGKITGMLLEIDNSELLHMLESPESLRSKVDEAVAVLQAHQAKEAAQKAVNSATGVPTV
Chain of Cytochrome P450 3A4 (P08684 whole entry): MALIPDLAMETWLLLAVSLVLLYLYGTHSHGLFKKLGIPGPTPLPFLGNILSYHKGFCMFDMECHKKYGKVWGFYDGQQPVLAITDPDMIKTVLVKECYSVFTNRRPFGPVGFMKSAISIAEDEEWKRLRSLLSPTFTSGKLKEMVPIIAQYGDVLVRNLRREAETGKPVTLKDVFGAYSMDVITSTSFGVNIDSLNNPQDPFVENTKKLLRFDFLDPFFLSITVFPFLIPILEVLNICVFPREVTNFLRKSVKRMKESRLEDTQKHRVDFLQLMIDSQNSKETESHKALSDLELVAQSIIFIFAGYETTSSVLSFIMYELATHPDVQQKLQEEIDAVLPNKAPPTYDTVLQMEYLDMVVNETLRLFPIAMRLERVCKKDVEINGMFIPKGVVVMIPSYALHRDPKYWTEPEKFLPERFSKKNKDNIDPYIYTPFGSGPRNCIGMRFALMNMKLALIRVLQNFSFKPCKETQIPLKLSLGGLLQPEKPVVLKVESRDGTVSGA
Chain of Voltage-gated inwardly rectifying potassium channel KCNH2 (Q12809 whole entry): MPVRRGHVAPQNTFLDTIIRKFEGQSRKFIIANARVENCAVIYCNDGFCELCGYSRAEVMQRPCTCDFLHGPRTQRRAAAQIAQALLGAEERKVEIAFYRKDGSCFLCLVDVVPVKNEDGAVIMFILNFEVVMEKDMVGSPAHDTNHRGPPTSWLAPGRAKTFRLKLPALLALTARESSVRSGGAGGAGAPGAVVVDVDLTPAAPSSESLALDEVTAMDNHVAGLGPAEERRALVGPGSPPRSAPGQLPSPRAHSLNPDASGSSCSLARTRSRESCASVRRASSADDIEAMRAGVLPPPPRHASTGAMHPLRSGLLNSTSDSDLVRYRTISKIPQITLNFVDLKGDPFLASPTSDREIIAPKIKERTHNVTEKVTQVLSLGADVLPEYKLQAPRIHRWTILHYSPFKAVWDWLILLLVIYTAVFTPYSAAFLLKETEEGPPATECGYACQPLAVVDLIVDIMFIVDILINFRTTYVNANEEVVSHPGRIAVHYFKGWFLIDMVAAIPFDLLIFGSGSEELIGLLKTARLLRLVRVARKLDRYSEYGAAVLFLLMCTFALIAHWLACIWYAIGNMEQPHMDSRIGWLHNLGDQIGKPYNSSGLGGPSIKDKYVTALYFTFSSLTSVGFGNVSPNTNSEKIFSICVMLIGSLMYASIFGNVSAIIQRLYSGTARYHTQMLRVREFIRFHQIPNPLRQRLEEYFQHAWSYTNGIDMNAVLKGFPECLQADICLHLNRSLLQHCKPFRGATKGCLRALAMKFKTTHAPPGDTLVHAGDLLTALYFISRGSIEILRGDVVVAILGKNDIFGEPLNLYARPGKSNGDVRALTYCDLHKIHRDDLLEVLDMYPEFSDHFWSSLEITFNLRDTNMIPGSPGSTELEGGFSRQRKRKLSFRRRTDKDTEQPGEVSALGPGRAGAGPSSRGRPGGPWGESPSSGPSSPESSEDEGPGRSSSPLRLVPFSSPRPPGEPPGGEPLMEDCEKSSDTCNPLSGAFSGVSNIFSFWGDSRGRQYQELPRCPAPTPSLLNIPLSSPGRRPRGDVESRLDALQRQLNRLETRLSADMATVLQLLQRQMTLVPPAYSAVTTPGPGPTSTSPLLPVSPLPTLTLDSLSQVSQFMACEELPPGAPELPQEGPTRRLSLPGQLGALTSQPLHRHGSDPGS

On to `CCCNC(=O)N1[C@H](C#N)[C@H](c2ccccc2C2=CCCCC2)[C@@H]1CO`, for which the AC50 in test [1] is 7.06 µM (active).
As to `O=C(COc1ccccc1Cl)NC(=S)Nc1ccccc1N1CCCC1`, the EC50 in test [2] was 1.56 µM (active).
Regarding `COC(=O)c1ccc(OC(=O)c2ccco2)cc1`, the AC50 in test [3] was 1.99 µM (active).
`COc1ccc(NC(=O)Cc2ccccc2)cn1`: the IC50 on Protein Rev is > 25.2 µM (not active); in [4], 15.1 µM (inactive).
As to `CCOC(=O)c1cc2c(ccn2C)n1CC(=O)N(Cc1ccccc1)c1ccccc1`, the IC50 in test [5] is > 66 µM (inactive); in test [6] it was > 66 µM (inactive); on Protein Rev, > 75.4 µM (not active); in test [4], > 6.62 µM (active).
On to `COc1ccc(Nc2nc(N)nc(CSC(=S)N3CCN(C)CC3)n2)cc1`, for which, in test [7], the IC50 was > 67.6 µM (inactive). The EC50 in test [8] is > 67.6 µM (inactive).
On to `CC(=O)O[C@](C)(CCC=C(C)C)C1CC=C(C)CC1` (some centres undefined), for which the concentration at half-maximal activity (AC50) at Cytochrome P450 3A4 was 31.6 µM (inconclusive).
In the case of `Cc1ccc(CNc2ccc3c(c2)OCO3)cc1`, the EC50 in test [9] is 1.52 µM (active); in test [10] it was > 60 µM (not active). The IC50 at Bcl-2-like protein 10 is > 3.13 µM (inactive).
Consider `COc1ccc2ncc(OC(C)=O)cc2c1`, for which the values for the IC50 (in test [11]; at Prothrombin) were > 100 µM (active) and 3.24 µM (active), respectively.
Turning to `O=CNC1(c2ccccc2)CCCCC1`, the AC50 in [3] was 1.96 µM (active).
For `CC(=O)Nc1cccc(-c2nc3ccccc3c(=O)o2)c1`, the IC50 in [12] is listed as 41.9 µM (not active).

(Values after ChEMBL document CHEMBL1201862, “PubChem BioAssay data set” (2004).)
